Data published in EP4696688A1, “BENZO-FUSED RING COMPOUND INHIBITOR, AND PREPARATION METHOD THEREFOR AND USE THEREOF” (Shanghai Hansoh Biomedical Co., Ltd., priority 2023, dated 2024).

Columns and labels:
human CYP11B1 = biological target: T1, human CYP11B1 (Homo sapiens, UniProt P15538); assay: G-402 cell enzyme experiment, CYP11B1 (cortisol product, HTRF), selectivity versus CYP11B2; type: cell-based; conditions: human selective factor: ratio of CYP11B1 EC50 to CYP11B2 EC50; G-402 cells
T1 construct: The main elements of an expression plasmid include ORF of human CYP11B1 or human CYP11B2; expressed in transfected cells
T1 sequence (P15538 25-503): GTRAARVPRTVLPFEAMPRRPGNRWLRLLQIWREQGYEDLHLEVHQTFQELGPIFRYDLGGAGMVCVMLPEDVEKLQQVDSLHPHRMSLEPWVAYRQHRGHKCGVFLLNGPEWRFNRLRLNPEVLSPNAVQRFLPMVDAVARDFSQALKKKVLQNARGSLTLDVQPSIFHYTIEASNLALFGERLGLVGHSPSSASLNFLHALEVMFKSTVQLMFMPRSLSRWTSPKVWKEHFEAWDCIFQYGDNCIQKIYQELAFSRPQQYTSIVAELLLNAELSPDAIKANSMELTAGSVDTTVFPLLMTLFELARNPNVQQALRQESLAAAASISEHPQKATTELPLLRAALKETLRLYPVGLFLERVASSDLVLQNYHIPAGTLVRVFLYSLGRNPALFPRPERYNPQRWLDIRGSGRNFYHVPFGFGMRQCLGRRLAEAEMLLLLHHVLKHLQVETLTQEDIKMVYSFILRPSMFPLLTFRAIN
Excerpt: (§1) G-402 cell line was used as host cells to express (by transient or stable transfection) an enzyme of the human CYP11 family. Specifically, G-402 cell lines stably expressing human CYP11B1 and human CYP11B2 were established respectively. […] Therefore, the G-402 cell line is very suitable as a host cell for the ectopic expression of an enzyme of the CYP11 family.
(§2) The G-402 cell line, originally derived from renal myoblastoma, can be obtained from ATCC (CRL-1440). The main elements of an expression plasmid include ORF of human CYP11B1 or human CYP11B2, a suitable promoter (CMV promoter), and a suitable resistance marker (neomycin). The expression plasmid was transfected into G-402 cells by standard technology, and a specific antibiotic was then given for screening. The activity of the enzyme expressed by the screened monoclonal cells was assessed by 11-deoxycorticosterone (substrate of CYP11B2) and 11-deoxycortisol (substrate of CYP11B1).
(§3) The G-402 cells expressing CYP11 plasmid, as established in the above solution, were cultured in McCoy's 5a Modified Medium (ATCC Catalog No. 30-2007) containing 10% FCS and 400 µg/ml G418 in an incubator at 37°C and 5% CO2. A cell enzyme experiment was carried out using DMEM/F12 medium containing 2.5% charcoal-treated FBS and an appropriate concentration of a substrate (1 µM 11-deoxycorticosterone or 1 µM 11-deoxycortisol). In order to detect the activity of the enzyme in the cells, the cells were plated in a 96-well plate and incubated for 16 h. The supernatant was then transferred and analyzed for the concentration of the expected product (the product of CYP11B2: aldosterone; the product of CYP11B1: cortisol). The concentrations of these products were determined by an HTRF experiment of CisBio.
(§4) In the cell enzyme experiment, the inhibitory effect of the test compound on the generated product can reflect the inhibitory effect thereof on the enzyme. The dose-dependent inhibition of the enzyme activity by the compound was calculated by plotting the concentration of the test compound (x axis) versus the measured product level (y axis). Then, the original data was fitted to a 4-parameter sigmoidal function (Morgan-Mercer-Flodin, MMF model) by least square method: y = (AB + Cx^D) / (B + x^D) in which A is the maximum y value, B is the EC50 determined by XLFit, C is the minimum y value, and D is the slope value. The maximum value A corresponds to the amount of the product detected without an inhibitor, and C corresponds to the amount of the product detected in the G402 cells expressing an empty plasmid.
(§5) The EC50 value of the compound of the present invention was determined by the above G-402 experiment system. The activity of the CYP11B2 enzyme was determined under the conditions of 1 µM 11-deoxycorticosterone and a variable amount of the inhibitor, and the activity of the CYP11B1 enzyme was determined under the conditions of 1 µM 11-deoxycortisol and a variable amount of the inhibitor.

human CYP11B2 = biological target: T2, human CYP11B2 (Homo sapiens, UniProt P19099); assay: G-402 cell enzyme experiment, CYP11B2 (aldosterone product, HTRF); type: cell-based; conditions: G-402 cells stably expressing human CYP11B2, 1 µM 11-deoxycorticosterone, 16 h
T2 construct: The main elements of an expression plasmid include ORF of human CYP11B1 or human CYP11B2; expressed in transfected cells
T2 sequence (P19099 25-503): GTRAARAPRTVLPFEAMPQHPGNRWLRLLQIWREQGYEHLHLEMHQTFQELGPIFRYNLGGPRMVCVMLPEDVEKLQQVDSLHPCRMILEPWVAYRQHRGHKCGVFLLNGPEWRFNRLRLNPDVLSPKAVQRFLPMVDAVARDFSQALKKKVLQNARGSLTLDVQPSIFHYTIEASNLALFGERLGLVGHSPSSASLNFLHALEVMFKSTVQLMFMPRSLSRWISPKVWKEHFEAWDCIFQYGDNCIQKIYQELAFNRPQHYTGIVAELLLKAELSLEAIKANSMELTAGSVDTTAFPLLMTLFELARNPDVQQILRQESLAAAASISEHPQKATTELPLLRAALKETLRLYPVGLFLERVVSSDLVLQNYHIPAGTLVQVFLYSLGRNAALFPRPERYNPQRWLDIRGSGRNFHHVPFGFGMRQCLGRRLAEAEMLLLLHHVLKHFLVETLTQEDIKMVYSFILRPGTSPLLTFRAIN
Excerpt: as §1, §2, §3, §4, §5

Structure (SMILES) | hsF (human CYP11B1) [x] | EC50 (human CYP11B2) [nM]
COc1ccc2cc(-c3cncc(NC4CN(C(=O)c5cnn(C6CC6)c5)C4)c3)ccc2n1 [Example 54, (1-cyclopropyl-1H-pyrazol-4-yl)(3-((5-(2-methoxyquinolin-6-yl)pyridin-3-yl)amino)azetidin-1-yl)methanone] | 404 | 21
COc1ccc2cc(-c3cncc(N4CC5(CCN(C(=O)c6cnn(C)c6)CC5)C4)c3)ccc2n1 [Example 62, (2-(5-(2-methoxyquinolin-6-yl)pyridin-3-yl)-2,7-diazaspiro[3.5]nonan-7-yl)(1-methyl-1H-pyrazol-4-yl)methanone] | 174 | 14
Cn1c(=O)ccc2cc(-c3cncc(C4=CCN(S(=O)(=O)C5CC5)CC4)c3)ccc21 [Example 70, 6-(1'-(cyclopropylsulfonyl)-1',2',3',6'-tetrahydro-[3,4'-bipyridin]-5-yl)-1-methylquinolin-2(1H)-one] | 252 | 55
COc1ccc2cc(-c3cncc(N4CC5(CN(C(=O)C6CC6)C5)C4)c3)ccc2n1 [Example 82, cyclopropyl (6-(5-(2-methoxyquinolin-6-yl)pyridin-3-yl)-2,6-diazaspiro[3.3]heptan-2-yl)methanone] | 842 | 18
COc1ccc2cc(-c3cncc(N4CC5(CN(C(C)=O)C5)C4)c3)ccc2n1 [Example 92, 1-(6-(5-(2-methoxyquinolin-6-yl)pyridin-3-yl)-2,6-diazaspiro[3.3]heptan-2-yl)ethan-1-one] | 1285 | 11
COc1ccc2cc(-c3cncc(N4CC5(CN(C(C)=O)C5)C4)n3)ccc2n1 [Example 93, 1-(6-(6-(2-methoxyquinolin-6-yl)pyrazin-2-yl)-2,6-diazaspiro[3.3]heptan-2-yl)ethan-1-one] | 229 | 48
COc1ccc2cc(-c3cncc(N4CC5(CN(C(=O)C6(F)CC6)C5)C4)c3)ccc2n1 [Example 94, (1-fluorocyclopropyl)(6-(5-(2-methoxyquinolin-6-yl)pyridin-3-yl)-2,6-diazaspiro[3.3]heptan-2-yl)methanone] | 350 | 13
COc1ccc2cc(-c3cncc(N4CC5(CN(C(=O)C6(O)CC6)C5)C4)c3)ccc2n1 [Example 97, (1-hydroxycyclopropyl)(6-(5-(2-methoxyquinolin-6-yl)pyridin-3-yl)-2,6-diazaspiro[3.3]heptan-2-yl)methanone] | 971 | 11
Cc1ccc(C(=O)N2CC3(C2)CN(c2cncc(-c4ccc5c(c4)sc(=O)n5C)c2)C3)cn1 [Example 101, 3-methyl-6-(5-(6-(6-methylnicotinoyl)-2,6-diazaspiro[3.3]heptan-2-yl)pyridin-3-yl)benzo[d]thiazol-2(3H)-one] | > 4651 | 43
Cn1cc(C(=O)N2CC3(C2)CN(c2cncc(-c4ccc5c(c4)sc(=O)n5C)n2)C3)cn1 [Example 107, 3-methyl-6-(6-(6-(1-methyl-1H-pyrazole-4-carbonyl)-2,6-diazaspiro[3.3]heptan-2-yl)pyrazin-2-yl)benzo[d]thiazol-2(3H)-one] | > 1923 | 104
COc1ccc2cc(-c3cncc(N4CC5(CC(N6CCc7cc(C)ncc7C6=O)C5)C4)c3)ccc2n1 [Example 108, 2-(2-(5-(2-Methoxyquinolin-6-yl)pyridin-3-yl)-2-azaspiro[3.3]heptan-6-yl)-6-methyl-3,4-dihydro-2,7-diazanaphthalen-1(2H)-one] | > 2817 | 71

Now those with a lower EC50 (human CYP11B2), led by results:

hsF (human CYP11B1) [x] | EC50 (human CYP11B2) [nM] | Structure (SMILES)
159 | 7 | COc1ccc2cc(-c3cncc(NC4CCN(C(=O)c5cnn(C)c5)CC4)c3)ccc2n1 [Example 56, (4-((5-(2-methoxyquinolin-6-yl)pyridin-3-yl)amino)piperidin-1-yl)(1-methyl-1H-pyrazol-4-yl)methanone]
1912 | 6 | COc1ccc2cc(-c3cncc(N4CC5(CC(NC(=O)c6cnn(C)c6)C5)C4)c3)ccc2n1 [Example 63, N-(2-(5-(2-methoxyquinolin-6-yl)pyridin-3-yl)-2-azaspiro[3.3]heptan-6-yl)-1-methyl-1H-pyrazole-4-carboxamide]
261 | 5 | COc1ccc2cc(-c3cncc(N4CC5(CN(C(=O)C6(C#N)CC6)C5)C4)c3)ccc2n1 [Example 81, 1-(6-(5-(2-methoxyquinolin-6-yl)pyridin-3-yl)-2,6-diazaspiro[3.3]heptane-2-carbonyl)cyclopropane-1-carbonitrile]
1652 | 8 | COc1ccc2cc(-c3cncc(N4CC5(CN(C(=O)c6ccc(C)nc6)C5)C4)c3)ccc2n1 [Example 84, (6-(5-(2-methoxyquinolin-6-yl)pyridin-3-yl)-2,6-diazaspiro[3.3]heptan-2-yl)(6-methylpyridin-3-yl)methanone]
159 | 6 | COc1ccc2cc(-c3cncc(N4CCC(NC(=O)c5cnn(C)c5)CC4)n3)ccc2n1 [Example 109, N-(1-(6-(2-methoxyquinolin-6-yl)pyrazin-2-yl)piperidin-4-yl)-1-methyl-1H-pyrazole-4-carboxamide]
